Assay [1] deals with GDP-bound NRAS wild-type protein (Homo sapiens, UniProt P01111). Kind of assay: Binding to NRAS by surface plasmon resonance (SPR), Single Cycle Kinetics. As to conditions: KD ratio, GDP-bound NRAS wild-type vs GDP-bound KRAS wild-type, SPR. (In general: Surface plasmon resonance follows binding to a sensor surface in real time, without labels.)
Assay [2] has as its target GDP-bound HRAS wild-type protein (Homo sapiens, UniProt P01112). Briefly: Binding to HRAS by surface plasmon resonance (SPR), Single Cycle Kinetics. The note with it: KD ratio, GDP-bound HRAS wild-type vs GDP-bound KRAS wild-type, SPR.

Molecules are shown by their SMILES.

Sequence of GDP-bound NRAS wild-type protein (P01111 whole entry): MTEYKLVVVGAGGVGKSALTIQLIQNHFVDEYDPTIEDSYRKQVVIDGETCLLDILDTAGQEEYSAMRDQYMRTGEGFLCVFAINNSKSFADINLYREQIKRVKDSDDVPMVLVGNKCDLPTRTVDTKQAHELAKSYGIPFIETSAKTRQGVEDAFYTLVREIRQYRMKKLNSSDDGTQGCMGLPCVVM
Sequence of GDP-bound HRAS wild-type protein (P01112 whole entry): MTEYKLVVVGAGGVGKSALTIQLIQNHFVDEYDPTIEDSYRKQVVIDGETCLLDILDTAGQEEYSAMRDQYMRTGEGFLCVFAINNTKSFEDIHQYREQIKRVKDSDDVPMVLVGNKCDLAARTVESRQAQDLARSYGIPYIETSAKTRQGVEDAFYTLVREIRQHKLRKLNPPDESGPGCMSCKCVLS

As to `CCO[C@@H]1C[C@H]2C(=O)NC3(CCC3)C(=O)N(C)[C@@H](C3CCCC3)C(=O)N(CCC3CCCC3)[C@H](C(=O)N(C)C)CC(=O)N(C)[C@@H](CC(C)C)C(=O)N[C@@H]([C@@H](C)CC)C(=O)N(C)CC(=O)N(C)[C@H]3CCCCCN(C3=O)[C@@H](Cc3ccc(F)cc3)C(=O)N(C)CC(=O)N[C@@H](CCc3ccc(C(F)(F)F)c(Cl)c3)C(=O)N2C1` [PP0976], in assay [1], the “NRAS/KRAS (ratio of KD value with respect to NRAS to KD value with respect to KRAS)” value was “B (a compound having 3 or more and less than 10 is denoted as B)”. Also, the “HRAS/KRAS (ratio of KD value with respect to HRAS to KD value with respect to KRAS)” value in assay [2] is “B (a compound having 3 or more and less than 10 is denoted as B)”.

Turning to `CC[C@H](C)[C@@H]1NC(=O)[C@H](CC(C)C)N(C)C(=O)C[C@@H](C(=O)N(C)C)N(CCC2CCCC2)C(=O)[C@H](C2CCCC2)N(C)C(=O)C2(CCC2)NC(=O)[C@@H]2CC(F)(F)CN2C(=O)[C@H](CCc2ccc(C(F)(F)F)c(Cl)c2)NC(=O)CN(C)C(=O)[C@H](Cc2ccc(F)cc2)N2CCCCC[C@@H](C2=O)N(C)C(=O)CN(C)C1=O` [PP0977], the “NRAS/KRAS (ratio of KD value with respect to NRAS to KD value with respect to KRAS)” value in assay [1] was “B (a compound having 3 or more and less than 10 is denoted as B)”. Moreover, in assay [2], the “HRAS/KRAS (ratio of KD value with respect to HRAS to KD value with respect to KRAS)” value was “A (a compound having 10 or more and less than 20 is denoted as A)”.

For `CCO[C@@H]1C[C@H]2C(=O)NC3(CCC3)C(=O)N(C)[C@@H](C3CCCC3)C(=O)N(C)[C@H](C(=O)N(C)C)CC(=O)N(C)[C@@H](CC)C(=O)N[C@@H]([C@@H](C)CC)C(=O)N(C)CC(=O)N(C)[C@H]3C/C=C\CCN(C3=O)[C@@H](Cc3ccc(C(F)(F)F)cc3)C(=O)N(C)CC(=O)N[C@@H](CCc3ccc(C(F)(F)F)c(Cl)c3)C(=O)N2C1` [PP0978], in assay [1], the “NRAS/KRAS (ratio of KD value with respect to NRAS to KD value with respect to KRAS)” value was “A (a compound having 10 or more and less than 20 is denoted as A)”. Also, the “HRAS/KRAS (ratio of KD value with respect to HRAS to KD value with respect to KRAS)” value in assay [2] was “B (a compound having 3 or more and less than 10 is denoted as B)”.

With `CCO[C@@H]1C[C@H]2C(=O)NC3(CCC3)C(=O)N(C)[C@@H](C3CCCC3)C(=O)N(CC)[C@H](C(=O)N3CCOCC3)CC(=O)N(C)[C@@H](CC)C(=O)N[C@@H]([C@@H](C)CC)C(=O)N(C)CC(=O)N(C)[C@H]3C/C=C\CCN(C3=O)[C@@H](Cc3ccc(C(F)(F)F)cc3)C(=O)N(C)CC(=O)N[C@@H](CCc3cc(F)c(C(F)(F)F)c(F)c3)C(=O)N2C1` [PP0979], the “NRAS/KRAS (ratio of KD value with respect to NRAS to KD value with respect to KRAS)” value in assay [1] is reported as “AA (a compound having 20 or more is denoted as AA)”. Besides, the “HRAS/KRAS (ratio of KD value with respect to HRAS to KD value with respect to KRAS)” value in assay [2] is “A (a compound having 10 or more and less than 20 is denoted as A)”.

Regarding `CCO[C@@H]1C[C@H]2C(=O)NC3(CCC3)C(=O)N(C)[C@@H](C3CCCC3)C(=O)N(CC)[C@H](C(=O)N(C)C)CC(=O)N(C)[C@@H](CC)C(=O)N[C@@H]([C@@H](C)CC)C(=O)N(C)CC(=O)N(C)[C@H]3C/C=C\CCN(C3=O)[C@@H](Cc3ccc(C(F)(F)F)cc3)C(=O)N(C)CC(=O)N[C@@H](CCc3cc(F)c(C(F)(F)F)c(F)c3)C(=O)N2C1` [PP0980], the “NRAS/KRAS (ratio of KD value with respect to NRAS to KD value with respect to KRAS)” value in assay [1] was “A (a compound having 10 or more and less than 20 is denoted as A)”. In addition, the “HRAS/KRAS (ratio of KD value with respect to HRAS to KD value with respect to KRAS)” value in assay [2] was “B (a compound having 3 or more and less than 10 is denoted as B)”.

On to `CCO[C@@H]1C[C@H]2C(=O)NC3(CCC3)C(=O)N(C)[C@@H](C3CCCC3)C(=O)N(CCC3CCCC3)[C@H](C(=O)N3CCOCC3)CC(=O)N(C)[C@@H](CC)C(=O)N[C@@H]([C@@H](C)CC)C(=O)N(C)CC(=O)N(C)[C@H]3C/C=C\CCN(C3=O)[C@@H](Cc3ccc(C(F)(F)F)cc3)C(=O)N(C)CC(=O)N[C@@H](CCc3cc(F)c(C(F)(F)F)c(F)c3)C(=O)N2C1` [PP0981], for which the “NRAS/KRAS (ratio of KD value with respect to NRAS to KD value with respect to KRAS)” value in assay [1] is “AA (a compound having 20 or more is denoted as AA)”. The “HRAS/KRAS (ratio of KD value with respect to HRAS to KD value with respect to KRAS)” value in assay [2] is “A (a compound having 10 or more and less than 20 is denoted as A)”.
